# From PubChem BioAssay (NCI)
#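 Growth conditions: 96-well plates. Treatment: test compound, 48 hours, 5 concentrations. Analysis: linear interpolation between bracketing concentrations; unreached endpoints set to highest concentration. At the TGI there is no net growth.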
# Key:
# Experiment in all cases: NCI anticancer screen, dose series, 48 h
# KM12 colon = system: KM12 colon
# OVCAR-5 ovarian = system: OVCAR-5 ovarian
# SK-MEL-5 melanoma = system: SK-MEL-5 melanoma
# SF-539 CNS = system: SF-539 CNS
# COLO 205 colon = system: COLO 205 colon
# M14 melanoma = system: M14 melanoma
# NCI-H460 lung = system: NCI-H460 lung
# SW-620 colon = system: SW-620 colon
# DU-145 prostate = system: DU-145 prostate
# NCI-H23 lung = system: NCI-H23 lung
# UACC-62 melanoma = system: UACC-62 melanoma
# HOP-62 NSCLC = system: HOP-62 NSCLC
# MCF7 breast = system: MCF7 breast
# CCRF-CEM leukemia = system: CCRF-CEM leukemia
# SNB-75 CNS = system: SNB-75 CNS
# NCI/ADR-RES ovarian = system: NCI/ADR-RES ovarian
# UO-31 renal = system: UO-31 renal
# U251 CNS = system: U251 CNS
# SNB-19 CNS = system: SNB-19 CNS
# UACC-257 melanoma = system: UACC-257 melanoma
# OVCAR-4 ovarian = system: OVCAR-4 ovarian
# RPMI-8226 leukemia = system: RPMI-8226 leukemia
# MALME-3M melanoma = system: MALME-3M melanoma
# OVCAR-3 ovarian = system: OVCAR-3 ovarian
# T-47D breast = system: T-47D breast
# HCT-15 colon = system: HCT-15 colon
# 786-0 renal = system: 786-0 renal
# HT29 colon = system: HT29 colon
# HL-60(TB) leukemia = system: HL-60(TB) leukemia
# PC-3 prostate = system: PC-3 prostate
# RXF 393 renal = system: RXF 393 renal
# TK-10 renal = system: TK-10 renal
# SK-OV-3 ovarian = system: SK-OV-3 ovarian
# IGROV1 ovarian = system: IGROV1 ovarian
# SN12C renal = system: SN12C renal
# HS 578T breast = system: HS 578T breast
# MDA-MB-435 = system: MDA-MB-435
# ACHN renal = system: ACHN renal
# SR leukemia = system: SR leukemia
# A498 renal = system: A498 renal
# K-562 leukemia = system: K-562 leukemia
# A549 NSCLC = system: A549 NSCLC
# SF-268 CNS = system: SF-268 CNS
# MOLT-4 leukemia = system: MOLT-4 leukemia
# HCC-2998 colon = system: HCC-2998 colon
# BT-549 breast = system: BT-549 breast
# LOX IMVI melanoma = system: LOX IMVI melanoma
# HCT-116 colon = system: HCT-116 colon
# SK-MEL-2 melanoma = system: SK-MEL-2 melanoma
# HOP-92 NSCLC = system: HOP-92 NSCLC
# MDA-MB-231 breast = system: MDA-MB-231 breast
# SK-MEL-28 melanoma = system: SK-MEL-28 melanoma
# MDA-N = system: MDA-N
# NCI-H226 lung = system: NCI-H226 lung
# OVCAR-8 ovarian = system: OVCAR-8 ovarian
# SF-295 CNS = system: SF-295 CNS
# EKVX NSCLC = system: EKVX NSCLC
# CAKI-1 renal = system: CAKI-1 renal
smiles,measurement,setting,value
COc1ccc(C(=O)Cn2c(C(=O)/C=C/c3ccco3)nc3ccccc32)cc1,TGI,KM12 colon,> 100 µM
same,TGI,OVCAR-5 ovarian,> 100 µM
same,TGI,SK-MEL-5 melanoma,> 100 µM
same,TGI,SF-539 CNS,> 100 µM
same,TGI,COLO 205 colon,71.8 µM
same,TGI,M14 melanoma,> 100 µM
same,TGI,NCI-H460 lung,> 100 µM
same,TGI,SW-620 colon,> 100 µM
same,TGI,DU-145 prostate,> 100 µM
same,TGI,NCI-H23 lung,> 100 µM
same,TGI,UACC-62 melanoma,> 100 µM
same,TGI,HOP-62 NSCLC,> 100 µM
same,TGI,MCF7 breast,> 100 µM
same,TGI,CCRF-CEM leukemia,> 100 µM
same,TGI,SNB-75 CNS,> 100 µM
same,TGI,NCI/ADR-RES ovarian,75.2 µM
same,TGI,UO-31 renal,> 100 µM
same,TGI,U251 CNS,> 100 µM
same,TGI,SNB-19 CNS,> 100 µM
same,TGI,UACC-257 melanoma,> 100 µM
same,TGI,OVCAR-4 ovarian,> 100 µM
same,TGI,RPMI-8226 leukemia,88.7 µM
same,TGI,MALME-3M melanoma,> 100 µM
same,TGI,OVCAR-3 ovarian,72.3 µM
same,TGI,T-47D breast,> 100 µM
same,TGI,HCT-15 colon,> 100 µM
same,TGI,786-0 renal,> 100 µM
same,TGI,HT29 colon,> 100 µM
same,TGI,HL-60(TB) leukemia,71.7 µM
same,TGI,PC-3 prostate,> 100 µM
same,TGI,RXF 393 renal,> 100 µM
same,TGI,TK-10 renal,> 100 µM
same,TGI,SK-OV-3 ovarian,97.4 µM
same,TGI,IGROV1 ovarian,> 100 µM
same,TGI,SN12C renal,> 100 µM
same,TGI,HS 578T breast,63.8 µM
same,TGI,MDA-MB-435,> 100 µM
same,TGI,ACHN renal,> 100 µM
same,TGI,SR leukemia,> 100 µM
same,TGI,A498 renal,> 100 µM
same,TGI,K-562 leukemia,> 100 µM
same,TGI,A549 NSCLC,> 100 µM
same,TGI,SF-268 CNS,91.4 µM
same,TGI,MOLT-4 leukemia,> 100 µM
same,TGI,HCC-2998 colon,37.1 µM
same,TGI,BT-549 breast,> 100 µM
same,TGI,LOX IMVI melanoma,> 100 µM
same,TGI,HCT-116 colon,> 100 µM
same,TGI,SK-MEL-2 melanoma,51.6 µM
same,TGI,HOP-92 NSCLC,> 100 µM
same,TGI,MDA-MB-231 breast,> 100 µM
same,TGI,SK-MEL-28 melanoma,> 100 µM
same,TGI,MDA-N,> 100 µM
same,TGI,NCI-H226 lung,> 100 µM
COC(=O)C1(c2cc3ccccc3n2S(=O)(=O)c2ccccc2)CC2C=CC1NC2 (stereo unspecified),TGI,KM12 colon,8.29 µM
same,TGI,OVCAR-5 ovarian,6.37 µM
same,TGI,SK-MEL-5 melanoma,16.7 µM
same,TGI,SF-539 CNS,3.55 µM
same,TGI,COLO 205 colon,4.61 µM
same,TGI,M14 melanoma,3.44 µM
same,TGI,NCI-H460 lung,> 29.6 µM
same,TGI,SW-620 colon,> 21.7 µM
same,TGI,DU-145 prostate,6.62 µM
same,TGI,OVCAR-8 ovarian,4.42 µM
same,TGI,NCI-H23 lung,6.85 µM
same,TGI,UACC-62 melanoma,3.31 µM
same,TGI,HOP-62 NSCLC,3.92 µM
same,TGI,MCF7 breast,3.06 µM
same,TGI,SNB-75 CNS,17.9 µM
same,TGI,NCI/ADR-RES ovarian,6.95 µM
same,TGI,UO-31 renal,2.86 µM
same,TGI,U251 CNS,2.75 µM
same,TGI,SNB-19 CNS,5.98 µM
same,TGI,UACC-257 melanoma,4.93 µM
same,TGI,OVCAR-4 ovarian,6.07 µM
same,TGI,RPMI-8226 leukemia,2.74 µM
same,TGI,MALME-3M melanoma,> 22.8 µM
same,TGI,OVCAR-3 ovarian,5.43 µM
same,TGI,T-47D breast,13.5 µM
same,TGI,HCT-15 colon,3.93 µM
same,TGI,786-0 renal,2.9 µM
same,TGI,HT29 colon,4.44 µM
same,TGI,HL-60(TB) leukemia,4.71 µM
same,TGI,SF-295 CNS,10.2 µM
same,TGI,PC-3 prostate,3.05 µM
same,TGI,RXF 393 renal,3.5 µM
same,TGI,TK-10 renal,4.85 µM
same,TGI,SK-OV-3 ovarian,13.2 µM
same,TGI,IGROV1 ovarian,3.22 µM
same,TGI,SN12C renal,4.69 µM
same,TGI,HS 578T breast,> 25.9 µM
same,TGI,MDA-MB-435,3.86 µM
same,TGI,ACHN renal,3.82 µM
same,TGI,EKVX NSCLC,15.1 µM
same,TGI,CAKI-1 renal,4.27 µM
same,TGI,SR leukemia,0.427 µM
same,TGI,A498 renal,13 µM
same,TGI,K-562 leukemia,5.01 µM
same,TGI,A549 NSCLC,10.9 µM
same,TGI,SF-268 CNS,> 20.2 µM
same,TGI,MOLT-4 leukemia,4.95 µM
same,TGI,HCC-2998 colon,3.8 µM
same,TGI,BT-549 breast,6.48 µM
same,TGI,LOX IMVI melanoma,3.73 µM
same,TGI,HCT-116 colon,6.16 µM
same,TGI,SK-MEL-2 melanoma,3.63 µM
same,TGI,HOP-92 NSCLC,4.12 µM
same,TGI,MDA-MB-231 breast,3.67 µM
same,TGI,SK-MEL-28 melanoma,8.49 µM
same,TGI,MDA-N,6.23 µM
same,TGI,NCI-H226 lung,21.4 µM
